From patent US6004948A, “Derivatives of benzosulphonamides as inhibitors of the enzyme cyclooxygenase II” (Nycomed Austria GmbH, priority 1995, dated 1999)

Experiments:
Human COX-2 = molecular target: T1, Human COX-2 (Homo sapiens, UniProt P35354); assay: Human COX-2 test (LPS-stimulated human monocytoid cell line, arachidonic acid, cyclooxygenase products by ELISA); format: cell-based; conditions: for IC50: human monocytoid cell line, LPS-stimulated, half an hour pre-incubation, arachidonic acid 15 minutes, ELISA, read-out: COX II IC50; for COX I/COX II: selectivity obtained from the two tests, ratio of COX I IC50 to COX II IC50
T1 construct: endogenous in cells
T1 sequence (P35354 18-604): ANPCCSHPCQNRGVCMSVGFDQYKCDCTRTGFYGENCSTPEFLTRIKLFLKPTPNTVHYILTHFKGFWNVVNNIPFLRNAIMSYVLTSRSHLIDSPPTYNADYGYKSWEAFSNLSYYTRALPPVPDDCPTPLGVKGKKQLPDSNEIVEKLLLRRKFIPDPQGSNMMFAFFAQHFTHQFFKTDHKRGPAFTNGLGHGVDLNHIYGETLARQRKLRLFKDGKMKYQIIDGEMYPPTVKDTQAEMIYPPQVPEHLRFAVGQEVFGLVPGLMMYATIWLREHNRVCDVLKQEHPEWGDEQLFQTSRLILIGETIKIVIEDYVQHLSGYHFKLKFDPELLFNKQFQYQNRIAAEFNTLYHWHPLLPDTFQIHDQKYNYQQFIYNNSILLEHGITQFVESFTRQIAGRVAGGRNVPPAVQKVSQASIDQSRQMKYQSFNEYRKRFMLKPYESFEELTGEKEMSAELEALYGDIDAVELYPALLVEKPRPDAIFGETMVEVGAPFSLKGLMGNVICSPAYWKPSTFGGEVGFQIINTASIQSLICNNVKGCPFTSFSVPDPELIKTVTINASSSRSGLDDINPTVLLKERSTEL
Protocol: Cells from a human monocytoid cell line are stimulated with LPS (incubator at 37° C., 5% CO2 -enriched atmosphere and approximately 100% relative humidity), in order to induce COX-2. Then the culture medium (RPMI 1640 enriched with 10% FCS, 2 mM glutamine, […], […] and 1 mM pyruvate) was renewed and potential inhibitors of cyclooxygenase-2, dissolved in culture medium or in phosphate-buffered saline or in any other solvent which is compatible with cell culture, were added and incubated for half an hour as described above. Arachidonic acid was pipetted in and incubation was continued for 15 minutes. The culture supernatant of the cells was removed and its content of products of cyclooxygenase metabolism (such as prostaglandin E2, prostaglandin F1a and thromboxane B2) was measured by ELISA.

Human COX 1 = molecular target: T2, Human COX 1 (Homo sapiens, UniProt P23219); assay: Human COX 1 test (arachidonic acid-induced aggregation of washed human thrombocytes); format: cell-based; conditions: arachidonic acid 10 μM, 37° C., substance added 2 minutes before, read-out: COX I IC50
T2 construct: arachidonic acid-induced aggregation of washed human thrombocytes; endogenous in cells; host or cells: washed human thrombocytes (platelets)
Protocol: The inhibition of arachidonic acid-induced aggregation of washed human thrombocytes was used as a test system for assessing the inhibition of cyclooxygenase I. The test substances were added to a thrombocyte suspension at 37° C. 2 minutes before the addition of the arachidonic acid (final concentration 10 μM) and the course of aggregation was measured using an aggregometer. By means of a concentration-activity curve the concentration of test substance at which 50% aggregation is measured was determined (IC50).

T2 sequence (P23219 24-599): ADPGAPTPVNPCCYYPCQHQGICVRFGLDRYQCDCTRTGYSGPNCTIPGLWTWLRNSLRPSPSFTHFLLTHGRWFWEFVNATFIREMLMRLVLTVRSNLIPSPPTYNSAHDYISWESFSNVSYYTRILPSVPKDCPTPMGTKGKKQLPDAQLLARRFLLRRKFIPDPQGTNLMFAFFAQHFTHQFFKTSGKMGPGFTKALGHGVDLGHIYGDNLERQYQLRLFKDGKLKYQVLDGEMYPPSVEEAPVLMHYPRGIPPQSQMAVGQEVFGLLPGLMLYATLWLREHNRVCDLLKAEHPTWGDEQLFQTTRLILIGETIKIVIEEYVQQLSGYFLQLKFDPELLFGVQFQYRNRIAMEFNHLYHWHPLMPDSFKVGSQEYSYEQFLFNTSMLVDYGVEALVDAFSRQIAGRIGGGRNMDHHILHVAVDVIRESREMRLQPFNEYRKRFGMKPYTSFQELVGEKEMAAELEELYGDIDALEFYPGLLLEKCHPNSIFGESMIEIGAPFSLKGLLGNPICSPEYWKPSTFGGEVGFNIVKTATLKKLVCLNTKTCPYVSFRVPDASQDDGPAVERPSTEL

Row | Structure (SMILES) | IC50 (Human COX-2) [nM] | COX I/COX II (Human COX-2) | IC50 (Human COX 1) [nM]
1 | CS(=O)(=O)Nc1ccc(S(N)(=O)=O)cc1Oc1ccc(Cl)cc1Cl [Example 1, 3-(2,4-Dichlorophenoxy)-4-methylsulphonylamino-benzenesulphonamide] | 100 | ≥ 500 | ≥ 50000
2 | CS(=O)(=O)Nc1cc2c(cc1Oc1ccccc1)S(=O)(=O)NC2 [Example 4, 6-(Phenoxy) -5-methylsulphonylamino-2H-1,2-benzothiazolidin-1,1-dioxide] | 110 | ≥ 450 | ≥ 45000
3 | CS(=O)(=O)Nc1ccc(S(N)(=O)=O)cc1Sc1ccc(F)cc1F [Example 6, 3-(2,4-Difluorothiophenoxy)-4-methylsulphonylamino-benzenesulphonamide] | 200 | 260 | 52000
4 | CS(=O)(=O)Nc1ccc(S(N)(=O)=O)cc1Sc1ccc(Cl)cc1Cl [Example 7, 3-(2,4-Dichlorothiophenoxy)-4-methylsulphonylamino-benzenesulphonamide] | 27 | 1000 | 27000
5 | CS(=O)(=O)Nc1ccc(S(N)(=O)=O)cc1Sc1ccc(F)cc1Cl [Example 8, 3-(2-Chloro-4-fluorothiophenoxy)-4-methylsulphonylamino-benzene-sulphonamide] | 150 | 73 | 11000
6 | CS(=O)(=O)Nc1ccc(S(N)(=O)=O)cc1Sc1ccc(Cl)cc1 [Example 17, 3-(4-Chlorophenylthio) -4-methylsulphonylaminobenzenesulphonamide] | 170 | 353 | 60000
7 | CS(=O)(=O)Nc1ccc(S(N)(=O)=O)cc1SC1CCCCC1 [Example 19, 3-(Cyclohexylthio)-4-methylsulphonylaminobenzene-sulphonamide] | 540 | ≥ 110 | ≥ 60000
8 | CS(=O)(=O)Nc1ccc(S(N)(=O)=O)cc1Sc1ccccc1Cl [Example 25, 3-(2-Chlorophenylthio)-4-methylsulphonylaminobenzene-sulphonamide] | 170 | ≥ 196 | ≥ 35000
9 | CS(=O)(=O)Nc1ccc(S(N)(=O)=O)cc1Sc1ccc(Br)cc1 [Example 26, 3-(4-Bromophenylthio)-4-methylsulphonylaminobenzenesulphonamide] | 270 | ≥ 253 | ≥ 70000
